Source: ChEMBL document CHEMBL3259629, “Discovery and optimization of piperidyl-1,2,3-triazole ureas as potent, selective, and in vivo-active inhibitors of α/β-hydrolase domain containing 6 (ABHD6)” (J Med Chem, 2013)

Key:
Conditions in all cases: Neuro2a, 3 nM
[1] = molecular target: T1, Glutamyl-tRNA(Gln) amidotransferase subunit A, mitochondrial (Mus musculus) (UniProt Q9CZN8)
T1 sequence (whole entry): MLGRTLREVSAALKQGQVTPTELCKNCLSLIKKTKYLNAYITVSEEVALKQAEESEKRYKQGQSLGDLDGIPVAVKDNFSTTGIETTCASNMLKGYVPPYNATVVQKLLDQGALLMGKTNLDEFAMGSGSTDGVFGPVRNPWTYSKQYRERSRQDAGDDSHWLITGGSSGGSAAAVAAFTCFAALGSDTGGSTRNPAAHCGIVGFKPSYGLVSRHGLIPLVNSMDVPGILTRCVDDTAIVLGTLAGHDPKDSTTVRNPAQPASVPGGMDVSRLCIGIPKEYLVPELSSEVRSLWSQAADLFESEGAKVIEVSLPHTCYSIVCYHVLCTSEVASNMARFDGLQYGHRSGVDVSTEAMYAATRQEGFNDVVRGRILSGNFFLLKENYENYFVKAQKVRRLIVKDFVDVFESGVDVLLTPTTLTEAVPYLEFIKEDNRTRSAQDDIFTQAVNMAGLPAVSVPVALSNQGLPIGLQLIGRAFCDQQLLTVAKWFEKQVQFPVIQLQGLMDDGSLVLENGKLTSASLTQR
Description: Inhibition of Qrsl1 in mouse Neuro2a cells at 3 nM after 4 hrs by ABPP-SILAC assay

[2] = molecular target: T2, Triacylglycerol hydrolase DDHD2 (Mus musculus) (UniProt Q80Y98)
T2 sequence (whole entry): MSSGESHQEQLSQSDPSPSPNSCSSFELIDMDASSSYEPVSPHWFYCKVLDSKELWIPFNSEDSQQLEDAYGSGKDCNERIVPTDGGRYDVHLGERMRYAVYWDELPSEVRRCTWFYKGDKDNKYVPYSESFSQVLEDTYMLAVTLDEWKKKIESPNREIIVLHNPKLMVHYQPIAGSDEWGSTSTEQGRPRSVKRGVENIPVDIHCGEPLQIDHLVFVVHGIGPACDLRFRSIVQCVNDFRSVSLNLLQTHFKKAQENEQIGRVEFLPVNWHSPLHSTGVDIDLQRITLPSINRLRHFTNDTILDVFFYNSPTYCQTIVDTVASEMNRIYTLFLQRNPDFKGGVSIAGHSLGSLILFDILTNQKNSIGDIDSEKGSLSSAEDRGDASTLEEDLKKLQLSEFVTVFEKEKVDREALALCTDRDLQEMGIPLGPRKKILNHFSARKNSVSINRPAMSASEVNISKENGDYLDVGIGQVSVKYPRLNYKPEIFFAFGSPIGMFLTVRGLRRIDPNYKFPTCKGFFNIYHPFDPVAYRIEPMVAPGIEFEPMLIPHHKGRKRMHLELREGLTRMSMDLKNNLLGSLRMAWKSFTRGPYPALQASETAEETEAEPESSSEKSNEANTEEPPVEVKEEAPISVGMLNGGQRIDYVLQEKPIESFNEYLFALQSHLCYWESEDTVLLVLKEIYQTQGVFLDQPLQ
Description: Inhibition of Ddhd2 in mouse Neuro2a cells at 3 nM after 4 hrs by ABPP-SILAC assay

[3] = molecular target: T3, Lysophosphatidylserine lipase ABHD12 (Mus musculus) (UniProt Q99LR1)
T3 sequence (whole entry): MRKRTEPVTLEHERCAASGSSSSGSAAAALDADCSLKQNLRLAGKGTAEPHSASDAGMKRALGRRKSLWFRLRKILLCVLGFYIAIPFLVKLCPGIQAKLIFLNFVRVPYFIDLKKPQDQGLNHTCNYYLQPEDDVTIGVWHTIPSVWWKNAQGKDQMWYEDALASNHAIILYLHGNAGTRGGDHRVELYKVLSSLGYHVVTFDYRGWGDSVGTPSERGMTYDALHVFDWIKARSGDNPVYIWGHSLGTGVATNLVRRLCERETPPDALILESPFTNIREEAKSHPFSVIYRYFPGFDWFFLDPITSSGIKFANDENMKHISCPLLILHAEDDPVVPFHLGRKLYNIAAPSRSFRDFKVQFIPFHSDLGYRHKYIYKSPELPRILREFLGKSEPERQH
Description: Inhibition of Abhd12 in mouse Neuro2a cells at 3 nM after 4 hrs by ABPP-SILAC assay

[4] = molecular target: T4, GPI inositol-deacylase (Mus musculus) (UniProt Q3UUQ7)
T4 sequence (whole entry): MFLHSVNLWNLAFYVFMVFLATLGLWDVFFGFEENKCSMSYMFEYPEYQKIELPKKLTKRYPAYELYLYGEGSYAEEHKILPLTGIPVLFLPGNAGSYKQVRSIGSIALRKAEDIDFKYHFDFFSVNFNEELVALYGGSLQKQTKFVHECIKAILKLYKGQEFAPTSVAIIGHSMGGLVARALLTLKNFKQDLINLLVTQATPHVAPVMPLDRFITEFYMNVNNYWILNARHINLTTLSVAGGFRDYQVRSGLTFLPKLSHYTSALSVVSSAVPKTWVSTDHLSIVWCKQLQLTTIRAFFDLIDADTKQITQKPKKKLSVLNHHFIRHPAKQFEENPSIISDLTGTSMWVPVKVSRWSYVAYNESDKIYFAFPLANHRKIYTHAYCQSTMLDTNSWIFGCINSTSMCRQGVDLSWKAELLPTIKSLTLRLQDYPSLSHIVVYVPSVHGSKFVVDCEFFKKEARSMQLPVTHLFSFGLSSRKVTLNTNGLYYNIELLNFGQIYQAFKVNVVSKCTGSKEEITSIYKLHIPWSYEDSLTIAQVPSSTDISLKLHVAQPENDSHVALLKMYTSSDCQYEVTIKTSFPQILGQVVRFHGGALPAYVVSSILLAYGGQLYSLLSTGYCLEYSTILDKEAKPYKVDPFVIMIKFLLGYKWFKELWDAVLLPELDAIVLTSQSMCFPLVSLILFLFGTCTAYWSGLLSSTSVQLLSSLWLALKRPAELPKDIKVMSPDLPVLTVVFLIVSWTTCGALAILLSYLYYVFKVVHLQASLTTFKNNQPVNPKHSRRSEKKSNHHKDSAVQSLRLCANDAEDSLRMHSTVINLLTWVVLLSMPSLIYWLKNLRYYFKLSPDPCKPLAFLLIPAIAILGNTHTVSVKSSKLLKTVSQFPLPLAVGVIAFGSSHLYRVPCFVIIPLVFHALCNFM
Description: Inhibition of Pgap1 in mouse Neuro2a cells at 3 nM after 4 hrs by ABPP-SILAC assay

[5] = molecular target: 1-acylglycerol-3-phosphate O-acyltransferase ABHD5 (Mus musculus) (UniProt Q9DBL9)
Description: Inhibition of Abhd5 in mouse Neuro2a cells at 3 nM after 4 hrs by ABPP-SILAC assay

[6] = molecular target: T5, Rhomboid-related protein 4 (Mus musculus) (UniProt Q8BHC7)
T5 sequence (whole entry): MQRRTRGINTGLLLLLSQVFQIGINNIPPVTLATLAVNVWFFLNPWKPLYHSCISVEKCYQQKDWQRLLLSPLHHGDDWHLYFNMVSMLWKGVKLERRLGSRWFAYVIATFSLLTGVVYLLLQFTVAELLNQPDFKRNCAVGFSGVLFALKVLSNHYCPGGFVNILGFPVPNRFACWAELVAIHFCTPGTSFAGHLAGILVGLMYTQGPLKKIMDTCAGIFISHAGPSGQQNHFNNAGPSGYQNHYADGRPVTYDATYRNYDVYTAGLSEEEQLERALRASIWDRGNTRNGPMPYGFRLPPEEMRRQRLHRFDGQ
Description: Inhibition of Rhbdd1 in mouse Neuro2a cells at 3 nM after 4 hrs by ABPP-SILAC assay

Measured: inhibition

1-acylglycerol-3-phosphate O-acyltransferase ABHD5 (Mus musculus), sequence (Q9DBL9 whole entry, looked up): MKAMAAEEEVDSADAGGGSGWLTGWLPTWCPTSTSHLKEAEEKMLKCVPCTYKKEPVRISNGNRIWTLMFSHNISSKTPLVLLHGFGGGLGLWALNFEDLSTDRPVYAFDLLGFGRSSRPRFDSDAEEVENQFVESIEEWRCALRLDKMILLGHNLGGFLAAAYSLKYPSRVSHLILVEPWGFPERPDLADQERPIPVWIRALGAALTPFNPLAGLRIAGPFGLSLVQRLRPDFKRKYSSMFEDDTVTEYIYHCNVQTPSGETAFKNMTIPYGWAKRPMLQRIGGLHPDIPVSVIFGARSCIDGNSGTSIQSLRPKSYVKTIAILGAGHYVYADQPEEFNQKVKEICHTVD

O=C(N1CCCCC1c1ccccc1)n1cc(-c2ccc(-c3cccc(CO)c3)cc2)nn1 (racemic)
< 50%: all assays above

O=C(c1cccc(-c2ccc(-c3cn(C(=O)N4CCCCC4c4ccccc4)nn3)cc2)c1)N1CCCCC1 (racemic)
< 50%: all assays above

O=C(O)c1cccc(-c2ccc(-c3cn(C(=O)N4CCCCC4Cc4ccccc4)nn3)cc2)c1 (racemic)
< 50%: all assays above
